Where no end group is shown, it is not given here.
Test system: drug-resistant Mycobacterium tuberculosis
Conditions: drug-resistant Mycobacterium tuberculosis growth; peptide 10 micrograms per ml; seven days

Substance: PHPFHLFVY-OH [Renin inhibitor]
- % inhibition: 0.0%

— patent publication US20100204142A1, “USE OF THE PEPTIDE PHPFHLFVY (RENIN INHIBITOR) AS A THERAPEUTIC AGENT” (priority 2007, published 2010)
